How the values were obtained:
Format in all cases: cell-based
MMP-1 = MMP-1 ELISA on supernatants of chondrocytes stimulated with IL-1β; conditions: Homo sapiens, Chondrocyte; chondrocytes pretreated 2 hours, IL-1β 24 hours; protein (ELISA); N/A = did not affect MMP levels; read-out: IC50 constants for inhibition of MMP activity, MMP-1
Procedure: (§1) The effects of dendrimer compounds comprising n-acyl urea terminal moieties (i.e., dd-NAU) were evaluated for MMP activity in chondrocytes. […] In some instances, these effects were compared to dendrimer compounds comprising glucosamine terminal moieties (i.e., dd-Gln) and/or ethyl dimethylaminopropylurea (EDU). Chondrocytes were grown to confluency in 6-well plates (4 donors). The chondrocytes were pretreated with dendrimers (e.g., dd-NAU or dd-Gln) or EDU for 2 hours and then stimulated with IL-1β for 24 hours. Supernatants were collected and MMP-1, -3, and 13 ELISA assays were performed. The cells were collected for RNA analysis (3 donors).
(§2) Chondrocytes were grown to confluency in 6-well plates (2 donors). […] Supernatants were collected and MMP-1, -3, and 13 ELISA assays were performed. Neutral Red assays and Calcien AM assays were also performed on the chondrocytes to determine cell viability.

MMP-3 = MMP-3 ELISA on supernatants of chondrocytes stimulated with IL-1β; conditions: Homo sapiens, Chondrocyte; chondrocytes pretreated 2 hours, IL-1β 24 hours; protein (ELISA); N/A = did not affect MMP levels; read-out: IC50 constants for inhibition of MMP activity, MMP-3
Procedure: as §1, §2

MMP-13 = MMP-13 ELISA on supernatants of chondrocytes stimulated with IL-1β; conditions: Homo sapiens, Chondrocyte; chondrocytes pretreated 2 hours, IL-1β 24 hours; protein (ELISA); N/A = did not affect MMP levels; read-out: IC50 constants for inhibition of MMP activity, MMP-13
Procedure: as §1, §2

IC50 (MMP-1): 1.42 mM
IC50 (MMP-3): 0.6 mM
IC50 (MMP-13): 1.4 mM
Structure (SMILES): N[C@H]1C(O)O[C@H](CO)[C@@H](O)[C@@H]1O (stereo partly drawn) [Glucosamine]
